# Results reported in PMC8480776, “Selenium Derivatives as Promising Therapy for Chagas Disease: In Vitro and In Vivo Studies” (ACS Infectious Diseases, 2021).
# Where two headings read alike, the source gives them in different places.
# How the values were obtained:
# [1] = test system: T. cruzi trypomastigotes, Tulahuen strain; test: Screening against bloodstream trypomastigotes, Tulahuen strain; format: cell-based, Trypanosoma cruzi
# Trypanosoma cruzi Fe-SOD = test: SOD enzymatic inhibition, Fe-SOD; format: biochemical
# Vero cells = test: Cytotoxicity test on Vero cells; format: cell-based; settings: Chlorocebus sabaeus, 48 h + 24 h resazurin, read-out: Toxicity IC50 Vero cell
# [2] = test system: T. cruzi amastigotes, SN3 strain; test: Screening against intracellular amastigotes, SN3 strain; format: cell-based, Trypanosoma cruzi
# [3] = test system: Vero cells infected with T. cruzi Arequipa strain; test: Infection rate in Vero cells (infected cells), Arequipa strain; format: cell-based; settings: Trypanosoma cruzi, 72 h of treatment
# [4] = test system: T. cruzi trypomastigotes, SN3 strain; test: Screening against bloodstream trypomastigotes, SN3 strain; format: cell-based, Trypanosoma cruzi
# [5] = test system: T. cruzi epimastigotes, Arequipa strain; test: Screening against extracellular epimastigotes, Arequipa strain; format: cell-based, Trypanosoma cruzi
# [6] = test system: T. cruzi epimastigotes, SN3 strain; test: Screening against extracellular epimastigotes, SN3 strain; format: cell-based, Trypanosoma cruzi
# [7] = test system: epimastigotes of T. cruzi Arequipa strain; test: Flow cytometry analysis of nucleic acid levels (acridine orange); format: cell-based, Trypanosoma cruzi; settings: IC25 concentrations, 72 h
# [8] = test system: T. cruzi amastigotes, Arequipa strain; test: Screening against intracellular amastigotes, Arequipa strain; format: cell-based, Trypanosoma cruzi
# [9] = biological target: T1, human erythrocytes CuZn-SOD (Homo sapiens, UniProt P00441); test: SOD enzymatic inhibition, CuZn-SOD; format: biochemical
# T1 construct: commercial copper/zinc superoxide dismutase (Cu/Zn-SOD) from human erythrocytes (Sigma-Aldrich); purchased Sigma-Aldrich; host or cells: human erythrocytes (natural source)
# T1 sequence (P00441 whole entry): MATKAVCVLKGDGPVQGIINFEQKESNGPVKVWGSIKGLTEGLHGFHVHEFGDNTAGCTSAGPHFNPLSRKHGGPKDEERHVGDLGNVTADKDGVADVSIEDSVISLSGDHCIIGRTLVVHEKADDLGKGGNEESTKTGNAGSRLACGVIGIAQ
# [10] = test system: T. cruzi epimastigotes, Tulahuen strain; test: Screening against extracellular epimastigotes, Tulahuen strain; format: cell-based, Trypanosoma cruzi
# [11] = test system: T. cruzi trypomastigotes, Arequipa strain; test: Screening against bloodstream trypomastigotes, Arequipa strain; format: cell-based, Trypanosoma cruzi
# [12] = test system: T. cruzi amastigotes, Tulahuen strain; test: Screening against intracellular amastigotes, Tulahuen strain; format: cell-based, Trypanosoma cruzi
# T. cruzi Arequipa strain = test: In vivo trypanocidal activity on BALB/c mice (acute and chronic Chagas disease); parameters: species or system Trypanosoma cruzi
# Method: (§1) Female BALB/c mice aged 10–12 weeks and with a size of 20–24 g were divided into five groups (n = 3 per group): 0, negative control group (uninfected and untreated mice); I, positive control group (infected and untreated mice); II, BZN group (infected mice treated with BZN); III, 26 group (infected mice treated with 26); and IV, 28 group (infected mice treated with 28).
# Mice were infected by intraperitoneal injection of 5 × 10^5 BTs of T. cruzi Arequipa strain per mouse in 200 μL PBS.[42] Subsequently, the treatment was intraperitoneally administered (∼200 μL) once daily for 5 consecutive days.
# (§2) The tested selenocompounds and BZN were prepared at 2 mg·mL^–1 in an aqueous suspension vehicle containing 5% (v/v) DMSO and 0.5% (w/v) hydroxypropyl methylcellulose, as previously reported.[52] Compounds (20 mg·kg^–1 per day) were administered for 5 consecutive days (total dosages of 100 mg·kg^–1), and vehicle only was administered in the negative and positive control groups. Treatments began when the infection was confirmed (9 dpi) for acute-phase-treated mice, and when it was established that the animals moved into the chronic phase (100 dpi, for chronic-phase-treated mice; Scheme 1).
# […]. Parasitemia was expressed as parasites·mL^–1.
# Immunosuppression was performed by intraperitoneal injection of three doses of 200 mg·kg^–1 of ISOPAC CP at 3–4 day intervals (Scheme 1), as previously reported.[53] Mice were closely monitored for side effects or for secondary infections due to immunosuppression. Within 7 days after the last CP injection, parasitemia reactivation was determined by counting BTs according the procedure described for parasitemia in the acute phase.[42]
# On 145 dpi, the mice were euthanized using CO2, followed by exsanguination via cardiac puncture, and blood was collected. […]. In addition, spleens were weighed to assess splenomegaly.[42]
# DNA extraction of the post-mortem organs/tissues was performed using Wizard Genomic DNA Purification Kit,[41] and the extracted DNA was subjected to amplification by PCR based on the spliced leader (SL) intergenic region sequence of T. cruzi (for detailed description, see literature reported previously).[55] Finally, the PCR products were resolved by electrophoresis on a 2% agarose gel (containing GelRed nucleic gel stain) for 90 min at 90 V.
# Circulating antibodies in serum against both antigens were quantitatively evaluated in triplicate by the ELISA test in 96-well plates using diluted serum samples (1:80 in PBS), as previously described.[41]
# [13] = format: in vivo, BALB/c mice; settings: variation vs control
# Method: as §1, §2
# Serum samples obtained from blood in several days post-infection (Scheme 1) were sent to the Biochemical Service (University of Granada) to measure a series of biochemical parameters with the commercial Cromakit using a clinical chemistry analyzer (BS-200, Shenzhen Mindray Biomedical Electronics Co., LTD), as previously described.[41]
# [14] = IC50 Vero cells/IC50 trypomastigotes
# [15] = IC50 Vero cells/IC50 amastigotes
# [16] = IC50 Vero cells/IC50 epimastigotes
# [17] = 20 mg·kg–1 per day i.p. 5 days from 9 dpi
# [18] = 20 mg·kg–1 per day i.p. 5 days from 100 dpi
# [19] = 20 mg·kg–1 per day i.p. for 5 days from 9 dpi
# [20] = treatment in acute phase, 15th dpi (2 days after treatment)
# [21] = treatment in acute phase, necropsy day
# [22] = treatment in chronic phase, 106th dpi (2 days after treatment)
# [23] = treatment in chronic phase, necropsy day
structure (smiles),measurement,setting,value
N#C[Se]c1ccc(NC(=O)c2ccc(C(F)(F)F)cc2)cc1 [Compound 26],"selectivity index (SI), Tulahuen strain, trypom. forms",[1]; [14],46
same,IC50,"[1]; Trypanosoma cruzi, TULAHUEN, bloodstream trypomastigotes, 24 h + 4 h resazurin, read-out: activity IC50, Tulahuen strain, trypom. forms",2.9 ± 0.2 µM
same,IC50,Trypanosoma cruzi Fe-SOD,51.9 µM
same,CC50,Vero cells,134 ± 11.3 µM
same,"selectivity index (SI), SN3 strain, am. forms",[2]; [15],34
same,IC50,"[2]; Trypanosoma cruzi, amastigotes in Vero cells, 72 h, read-out: activity IC50, SN3 strain, am. forms",3.9 ± 0.5 µM
same,IC50,[3],22.4 µM
same,"selectivity index (SI), SN3 strain, trypom. forms",[4]; [14],52
same,IC50,"[4]; Trypanosoma cruzi, bloodstream trypomastigotes, 24 h + 4 h resazurin, read-out: activity IC50, SN3 strain, trypom. forms",2.5 ± 0.3 µM
same,"Selectivity index (SI), epimastigotes, Arequipa strain",[5]; [16],84
same,IC50,"[5]; Trypanosoma cruzi, 48 h + 24 h resazurin, read-out: Activity IC50, epimastigote form, Arequipa strain",1.6 ± 0.3 µM
same,"Selectivity index (SI), epimastigotes, SN3 strain",[6]; [16],64
same,IC50,"[6]; Trypanosoma cruzi, 48 h + 24 h resazurin, read-out: Activity IC50, epimastigote form, SN3 strain",2.1 ± 0.3 µM
same,inhibition of nucleic acid levels,[7],47%
same,"selectivity index (SI), Arequipa strain, am. forms",[8]; [15],25
same,IC50,"[8]; Trypanosoma cruzi, amastigotes in Vero cells, 72 h, read-out: activity IC50, Arequipa strain, am. forms",5.4 ± 0.7 µM
same,IC50,[9],> 100 µM
same,"Selectivity index (SI), epimastigotes, Tulahuen strain",[10]; [16],52
same,IC50,"[10]; Trypanosoma cruzi, TULAHUEN, 48 h + 24 h resazurin, read-out: Activity IC50, epimastigote form, Tulahuen strain",2.6 ± 0.4 µM
same,"selectivity index (SI), Arequipa strain, trypom. forms",[11]; [14],56
same,IC50,"[11]; Trypanosoma cruzi, bloodstream trypomastigotes, 24 h + 4 h resazurin, read-out: activity IC50, Arequipa strain, trypom. forms",2.4 ± 0.3 µM
same,"selectivity index (SI), Tulahuen strain, am. forms",[12]; [15],27
same,IC50,"[12]; Trypanosoma cruzi, TULAHUEN, amastigotes in Vero cells, 72 h, read-out: activity IC50, Tulahuen strain, am. forms",4.9 ± 0.3 µM
same,"anti-T. cruzi IgG levels (ELISA), acute phase treatment",T. cruzi Arequipa strain; [17],lower IgG values than the treated with BZN at the beginning of the treatment
same,"splenomegaly reduction in comparison with untreated mice, acute phase treatment",T. cruzi Arequipa strain; [17],49%
same,"parasitaemia reactivation after immunosuppression, acute phase treatment","T. cruzi Arequipa strain; 20 mg·kg–1 per day i.p. 5 days from 9 dpi, compared to untreated group",approximately 65%
same,"parasite-free organs/tissues by PCR, acute phase treatment","T. cruzi Arequipa strain; 20 mg·kg–1 per day i.p. 5 days from 9 dpi, necropsy 145 dpi",42.9%
same,"anti-T. cruzi IgG levels (ELISA), chronic phase treatment",T. cruzi Arequipa strain; [18],similar
same,"splenomegaly reduction in comparison with untreated mice, chronic phase treatment",T. cruzi Arequipa strain; [18],38%
same,"parasitaemia reactivation after immunosuppression, chronic phase treatment","T. cruzi Arequipa strain; 20 mg·kg–1 per day i.p. 5 days from 100 dpi, compared to untreated group",~60%
same,"parasite-free organs/tissues by PCR, chronic phase treatment","T. cruzi Arequipa strain; 20 mg·kg–1 per day i.p. 5 days from 100 dpi, necropsy 145 dpi",42.9%
same,day at which parasitaemia was resolved,T. cruzi Arequipa strain; [19],48 dpi
same,parasitaemia profile during the acute phase,T. cruzi Arequipa strain; [19],better activity profile compared to that of BZN
same,ALP (liver marker),[13]; [20],"+ (+/-, 10-20% increase/decrease over the range)"
same,ALT/GPT (liver marker),[13]; [20],"++ (++/--, 20-30% increase/decrease over the range)"
same,AST/GOT (liver marker),[13]; [20],"++ (++/--, 20-30% increase/decrease over the range)"
same,CK-MB (heart marker),[13]; [20],"++++ (++++/----, ˃ 40% increase/decrease over the range)"
same,LDH (heart marker),[13]; [20],"+ (+/-, 10-20% increase/decrease over the range)"
same,Total bilirubin (liver marker),[13]; [20],"++ (++/--, 20-30% increase/decrease over the range)"
same,Urea (kidney marker),[13]; [20],"-- (++/--, 20-30% increase/decrease over the range)"
same,Uric acid (kidney marker),[13]; [20],"---- (++++/----, ˃ 40% increase/decrease over the range)"
same,ALP (liver marker),[13]; [21],"++ (++/--, 20-30% increase/decrease over the range)"
same,ALT/GPT (liver marker),[13]; [21],"++ (++/--, 20-30% increase/decrease over the range)"
same,AST/GOT (liver marker),[13]; [21],"= (=, variation ≤ 10%)"
same,CK-MB (heart marker),[13]; [21],"= (=, variation ≤ 10%)"
same,LDH (heart marker),[13]; [21],"= (=, variation ≤ 10%)"
same,Total bilirubin (liver marker),[13]; [21],"+ (+/-, 10-20% increase/decrease over the range)"
same,Urea (kidney marker),[13]; [21],"= (=, variation ≤ 10%)"
same,Uric acid (kidney marker),[13]; [21],"= (=, variation ≤ 10%)"
same,ALP (liver marker),[13]; [22],"= (=, variation ≤ 10%)"
same,ALT/GPT (liver marker),[13]; [22],"++ (++/--, 20-30% increase/decrease over the range)"
same,AST/GOT (liver marker),[13]; [22],"+++ (+++/---, 30-40% increase/decrease over the range)"
same,CK-MB (heart marker),[13]; [22],"+ (+/-, 10-20% increase/decrease over the range)"
same,LDH (heart marker),[13]; [22],"= (=, variation ≤ 10%)"
same,Total bilirubin (liver marker),[13]; [22],"+++ (+++/---, 30-40% increase/decrease over the range)"
same,Urea (kidney marker),[13]; [22],"--- (+++/---, 30-40% increase/decrease over the range)"
same,Uric acid (kidney marker),[13]; [22],"- (+/-, 10-20% increase/decrease over the range)"
same,ALP (liver marker),[13]; [23],"= (=, variation ≤ 10%)"
same,ALT/GPT (liver marker),[13]; [23],"= (=, variation ≤ 10%)"
same,AST/GOT (liver marker),[13]; [23],"= (=, variation ≤ 10%)"
same,CK-MB (heart marker),[13]; [23],"+ (+/-, 10-20% increase/decrease over the range)"
same,LDH (heart marker),[13]; [23],"= (=, variation ≤ 10%)"
same,Total bilirubin (liver marker),[13]; [23],"++ (++/--, 20-30% increase/decrease over the range)"
same,Urea (kidney marker),[13]; [23],"= (=, variation ≤ 10%)"
same,Uric acid (kidney marker),[13]; [23],"- (+/-, 10-20% increase/decrease over the range)"
